{
  "source": "patent US20240376148A1",
  "about": "“MEDICAMENT FOR INHIBITING DIETARY OBESITY AND POLYPEPTIDE USED THEREFOR” (INSTITUTE OF ZOOLOGY, CHINESE ACADEMY OF SCIENCES, priority 2022, published 2024)",
  "key": {"[1]": {"system": "A. muciniphila", "experiment": "qPCR of abundance of A. muciniphila in intestine of rats", "assay_type": "in vivo, Sprague Dawley (SD) rats", "conditions": "figure d of FIG. 7 (rats), p<0.05", "source_text": "FIGS. 7A-7H are a graph showing the effect of using D3 on rats and rhesus monkeys in Example 2 of the present invention. FIG. 7A is the schematic diagram of sampling time point in rats; FIG. 7B is the graph showing the results of the growth rate of body weight with different feeding treatments of the rat; FIG. 7C is the graph showing the results of the short-term feed intake measurement of the rat; FIG. 7D is the graph showing the results of the qPCR detection of the abundance of A. muciniphila in intestine of rats with different feeding treatment; FIG. 7E is a schematic diagram of the sampling time point in rhesus monkeys; FIG. 7F is the graph showing the results of the growth rate of body weight with different feeding treatments of rhesus monkeys; FIG. 7G is the feed intake monitoring graphs of rhesus monkeys with different feeding treatments; FIG. 7H is the graph showing the results of the qPCR detection of the abundance of A. muciniphila in intestine of rhesus monkeys with different feeding treatment. The data shown in the figure are mean±standard deviation, the number of repetitions is 5-10, and the significant difference of each group is analyzed by Wilcoxon test. * representing a significance analysis result of P<0.05, ** representing a significance analysis result of P<0.01.\nBody weights were monitored weekly. […]"}, "[2]": {"system": "UGN", "experiment": "Mice ileum immunofluorescence", "assay_type": "in vivo", "procedure": "After the ileum was taken out, it was embedded with OCT and sliced by freezing microtome. Immunofluorescence brief steps: after the sections were washed with PBS for 3 times, 4% paraformaldehyde was added, fixed at room temperature for 10 min, and then washed with PBS for 3 times; 0.5% Triton X-100 was added, permeation at room temperature for 5 min, then washed with PBS 3 times; cell blocking solution was added and blocked at room temperature for 30 min; primary anti-UGN specific antibody (1:200) was added, 4° C. overnight and washed 3 times with PBST; the secondary antibody (1:500) was added, reacted at room temperature for 2 h, washed twice with PBST and washed once with PBS. The cells were stained with […] for additional 10 minutes at 37° C. Cleaned and sealed. Microscopic observation was recorded."}, "[3]": {"experiment": "Macaque experiment (high-fat diet)", "assay_type": "in vivo", "conditions": "rhesus monkeys, high-fat diet (45 kcal % fat), intragastric 0.5 mg-1 mg/Kg once/day, after 6 weeks", "procedure": "Rhesus monkeys were used in the macaque experiment. 9 in total, […] at the beginning of the experiment, and each weighed 2.5±0.5 Kg. They were raised individually in the same environment, in a room with suitable temperature and humidity control, and the light/dark cycle was 12 hours, free diet and drinking water, and fed with standard laboratory feed (#2150230401). After 7 days of adaptation, they were randomly assigned to 3 groups with 3 animals in each group, and each group was subjected to different feeding treatments, specifically as follows (see figure e of FIG. 7):\nNC group (i.e. normal diet group): fed with standard laboratory feed (#2150230401), free diet and drinking water for 6 weeks.\nHFD group (i.e. high-fat diet group): fed with high-fat diet (45 kcal % fat), free diet and drinking water for 6 weeks.\nD3 group (i.e. high-fat diet+D3 medicine intragastric administration group): fed with high-fat diet (45 kcal % fat), free diet and drinking water for 6 weeks. HD medicines were selected as D3, intragastrically administrated with D3, 0.5 mg-1 mg/Kg body weight, and intragastrically administrated according to 1.7 ml/Kg body weight, once/day.\nFood intake (unit: g/only/week) and body weight were monitored weekly. Fresh excreta of the above animals were collected and stored at −80° C. for further analysis of macaque fecal flora (method as above)."}},
  "data": [
    {"sequence": "RTRYCRTGR [D3]", "values": [
      {"measurement": "relative abundance of A. muciniphila in the intestine by qPCR", "setting": "[1]", "value": "significantly increased"},
      {"measurement": "fluorescence intensity of UGN in ileal cells", "setting": "[2]", "value": "significantly increased"},
      {"measurement": "growth rate of body weight", "setting": "[3]", "value": "decreased significantly"}
    ]}
  ]
}
